Experiments:
[1] = target: T1, CDK4/cyclin D3 (Homo sapiens, UniProt P11802); experiment: Human CDK4/cyclin D3 inhibitory activity (QS S Assist CDK4/Cyclin D3_FP Kit, IMAP fluorescence polarization); type: biochemical; settings: 50% inhibitory concentration against CDK4/cyclin D3, given as class symbol
T1 construct: purchased Carna Biosciences, Inc. QS S Assist CDK4/Cyclin D3_FP Kit
In short: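 Percent inhibition, relative to DMSO with and without enzyme, was curve-fitted to give IC50 from polarization (ex 485, em 535 nm). The 45-min room-temperature reaction used 12.5-25 ng/well enzyme, kit ATP/substrate/metal mix, and HEPES pH 7.4 buffer with Tween20 and DTT, followed by 30-min IMAP binding in the dark.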

[2] = target: T2, CDK2/cyclin A2 (Homo sapiens, UniProt P24941); experiment: Human CDK2/cyclin A2 inhibitory activity (QS S Assist CDK2/Cyclin A2_FP Kit, IMAP fluorescence polarization); type: biochemical; settings: 50% inhibitory concentration against CDK2/cyclin A2, given as class symbol
T2 construct: purchased Carna Biosciences, Inc. QS S Assist CDK2/Cyclin A2_FP Kit
In short: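 Kinase activity read as fluorescence polarization (485/535 nm) after phosphorylated fluorescent substrate binds IMAP reagent (30 min, RT, dark). Enzyme (2.5 ng/well) reacted 60 min at RT with ATP/substrate/metal in HEPES pH 7.4 buffer with Tween 20 and DTT; no-enzyme wells define 0% activity; IC50 by curve fit.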

T1 sequence (P11802 whole entry): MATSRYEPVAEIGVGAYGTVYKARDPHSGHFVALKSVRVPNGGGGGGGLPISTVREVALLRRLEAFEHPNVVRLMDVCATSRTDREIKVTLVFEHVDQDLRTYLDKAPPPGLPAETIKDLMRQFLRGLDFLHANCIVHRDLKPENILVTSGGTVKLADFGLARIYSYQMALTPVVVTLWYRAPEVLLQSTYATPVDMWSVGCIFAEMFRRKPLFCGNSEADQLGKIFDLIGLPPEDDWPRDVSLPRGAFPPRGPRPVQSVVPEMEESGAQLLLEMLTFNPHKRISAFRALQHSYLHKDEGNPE
T1 sequence (P30281 whole entry partner): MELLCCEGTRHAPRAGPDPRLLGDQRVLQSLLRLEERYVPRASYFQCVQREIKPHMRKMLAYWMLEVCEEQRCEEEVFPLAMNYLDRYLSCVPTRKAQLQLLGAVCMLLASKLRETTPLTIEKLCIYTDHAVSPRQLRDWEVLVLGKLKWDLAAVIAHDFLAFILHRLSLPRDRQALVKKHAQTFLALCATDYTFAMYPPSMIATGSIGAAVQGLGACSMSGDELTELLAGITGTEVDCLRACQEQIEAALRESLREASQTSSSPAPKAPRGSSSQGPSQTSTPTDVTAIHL

Row | SMILES | IC50 [1] [nM] | IC50 [2] [nM]
1 | CCCNc1nc(C2(C)COC2)cc2cnc(Nc3ccc4c(n3)CCNC4)nc12 [Compound 947] | < 10 | ≥ 100
2 | CCCNc1nc(C2CCOC2)cc2cnc(Nc3ccc4c(n3)CCNC4)nc12 (stereo not drawn) [Compound 948] | < 10 | ≥ 100
3 | CC(C)Nc1nc([C@@H](C)O)cc2cnc(Nc3ccc(Cn4cncn4)cn3)nc12 [Compound 949] | < 10 | ≥ 100
4 | CC(C)Nc1nc([C@@H](C)O)cc2cnc(Nc3ccc(CC4CCNCC4)cn3)nc12 [Compound 950] | < 10 | ≥ 100
5 | CC(C)Nc1nc([C@@H](C)O)cc2cnc(Nc3ccc(CC4CCN(CCO)CC4)cn3)nc12 [Compound 951] | < 10 | ≥ 100
6 | C[C@@H](O)c1cc2cnc(Nc3ccc(CC4CCNCC4)cn3)nc2c(NCC2CCOCC2)n1 [Compound 952] | < 10 | ≥ 100
7 | C[C@@H](O)c1cc2cnc(Nc3ccc(CC4CCN(CCO)CC4)cn3)nc2c(NCC2CCOCC2)n1 [Compound 953] | < 10 | ≥ 100
8 | CC(C)Nc1nc([C@@H](C)O)cc2cnc(Nc3ccc4c(n3)CCN(CCN3CCCC3=O)C4)nc12 [Compound 955] | < 10 | ≥ 100
9 | CO[C@H](C)c1cc2cnc(Nc3ccc(C4CCNCC4)cn3)nc2c(N[C@H]2CCCOC2)n1 [Compound 956] | < 10 | ≥ 100
10 | C[C@@H](O)c1cc2cnc(Nc3ccc(C4CCNCC4)cn3)nc2c(N[C@H]2CCCOC2)n1 [Compound 957] | < 10 | ≥ 100
11 | CC(C)Nc1nc([C@@H](C)O)cc2cnc(Nc3ccc(-c4cncn4C)cn3)nc12 [Compound 958] | < 10 | ≥ 100
12 | CCCNc1nc([C@@H](C)O)cc2cnc(Nc3ccc(-c4cncn4C)cn3)nc12 [Compound 959] | 10 to 100 | ≥ 100
13 | CNC(=O)CN1CCN(c2ccc(Nc3ncc4cc([C@@H](C)O)nc(NC(C)C)c4n3)nn2)CC1 [Compound 960] | < 10 | ≥ 100
14 | CNC(=O)CN1CCN(c2ccc(Nc3ncc4cc([C@@H](C)O)nc(NC(C)C)c4n3)nc2)C(=O)C1 [Compound 961] | < 10 | ≥ 100
15 | CC(C)Nc1nc([C@@H](C)O)cc2cnc(Nc3ccc(N4CCN(CC(=O)N(C)C)CC4=O)cn3)nc12 [Compound 962] | < 10 | ≥ 100
16 | CC(C)Nc1nc([C@@H](C)O)cc2cnc(Nc3ccc(N4CCN(CC(F)(F)F)CC4)nn3)nc12 [Compound 963] | < 10 | ≥ 100
17 | CC(C)Nc1nc([C@@H](C)O)cc2cnc(Nc3ccc(N4CCn5cncc5C4)nn3)nc12 [Compound 964] | < 10 | ≥ 100
18 | Cc1ncn(Cc2ccc(Nc3ncc4cc([C@@H](C)O)nc(NC(C)C)c4n3)nc2)c1C(=O)O [Compound 965] | 10 to 100 | ≥ 100
19 | CC(C)Nc1nc([C@@H](C)O)cc2cnc(Nc3ccc(N4CCN(CC(=O)N5CCCC5)CC4)nn3)nc12 [Compound 966] | < 10 | ≥ 100
20 | CC(C)Nc1nc([C@@H](C)O)cc2cnc(Nc3ccc(N4CCN(CC(=O)N5CCOCC5)CC4)nn3)nc12 [Compound 967] | < 10 | ≥ 100
21 | CC(C)NC(=O)CN1CCN(c2ccc(Nc3ncc4cc([C@@H](C)O)nc(NC(C)C)c4n3)nn2)CC1 [Compound 968] | < 10 | ≥ 100
22 | CO[C@H](C)c1cc2cnc(Nc3ccc(CN4CCN(CC#N)CC4)cn3)nc2c(NC(C)C)n1 [Compound 969] | 10 to 100 | ≥ 100
23 | CO[C@H](C)c1cc2cnc(Nc3ccc(CN4CCN(CC(N)=O)CC4)cn3)nc2c(NC(C)C)n1 [Compound 970] | < 10 | ≥ 100

Row | SMILES | IC50 [1] [nM] | IC50 [2] [nM]
24 | CNC(=O)CN1CCN(Cc2ccc(Nc3ncc4cc([C@@H](C)OC)nc(NC(C)C)c4n3)nc2)CC1 [Compound 971] | < 10 | ≥ 100
25 | CO[C@H](C)c1cc2cnc(Nc3ccc(CN4CCN(CC(=O)N(C)C)CC4)cn3)nc2c(NC(C)C)n1 [Compound 972] | < 10 | ≥ 100
26 | CC(=O)c1cc2cnc(Nc3ccc(CN4CCN(CCO)CC4)cn3)nc2c(NCC(C)C)n1 [Compound 973] | 10 to 100 | ≥ 100
27 | CCCNc1nc(C(C)=O)cc2cnc(Nc3ccc(CN4CCN(CCO)CC4)cn3)nc12 [Compound 974] | 10 to 100 | ≥ 100
28 | CCCCNc1nc(C(C)=O)cc2cnc(Nc3ccc(CN4CCN(CCO)CC4)cn3)nc12 [Compound 975] | 10 to 100 | ≥ 100
29 | CCNc1nc([C@@H](C)O)cc2cnc(Nc3ccc(CN4CCN(C[C@H](C)O)CC4)cn3)nc12 [Compound 976] | < 10 | ≥ 100
30 | CCNc1nc([C@@H](C)O)cc2cnc(Nc3ccc(CN4CCN(C[C@@H](C)O)CC4)cn3)nc12 [Compound 977] | < 10 | ≥ 100
31 | CO[C@H](C)c1cc2cnc(Nc3ccc(CN4CCNC[C@H]4C)cn3)nc2c(NC(C)C)n1 [Compound 978] | < 10 | ≥ 100
32 | CO[C@H](C)c1cc2cnc(Nc3ccc(CN4CCNC[C@@H]4C)cn3)nc2c(NC(C)C)n1 [Compound 979] | < 10 | ≥ 100
33 | CCNc1nc([C@@H](C)O)cc2cnc(Nc3ccc(N4CCN(C)CC4)nn3)nc12 [Compound 980] | < 10 | ≥ 100
34 | CC(C)Nc1nc([C@@H](C)O)c(F)c2cnc(Nc3ccc(N4CCNCC4=O)cn3)nc12 [Compound 981] | < 10 | 10 to 100
35 | CCNc1nc([C@@H](C)O)cc2cnc(Nc3ccc(CN4CCN(CCO)C[C@H]4C)cn3)nc12 [Compound 982] | < 10 | ≥ 100
36 | CCNc1nc([C@@H](C)O)cc2cnc(Nc3ccc(CN4CCN(CCO)C[C@@H]4C)cn3)nc12 [Compound 983] | < 10 | ≥ 100
37 | CCNc1nc([C@@H](C)O)c(Cl)c2cnc(Nc3ccc(CN4CCN(CCO)CC4)cn3)nc12 [Compound 984] | < 10 | ≥ 100
38 | CC(C)Nc1nc([C@@H](C)O)cc2cnc(Nc3ccc(N4CCNC[C@H]4C)cn3)nc12 [Compound 985] | < 10 | ≥ 100
39 | CC(C)Nc1nc([C@@H](C)O)cc2cnc(Nc3ccc(N4CCNC[C@@H]4C)cn3)nc12 [Compound 986] | < 10 | ≥ 100
40 | CC(C)Nc1nc([C@@H](C)O)cc2cnc(Nc3ccc(CN4CCN(C(=O)CO)CC4)cn3)nc12 [Compound 987] | < 10 | ≥ 100
41 | CO[C@H](C)c1cc2cnc(Nc3ccc(CN4CCN(C(=O)CO)CC4)cn3)nc2c(NC(C)C)n1 [Compound 988] | < 10 | ≥ 100
42 | CC(C)Nc1nc([C@@H](C)O)cc2cnc(Nc3ccc(N4CCN(CC(=O)N(C)C)CC4)nn3)nc12 [Compound 991] | < 10 | ≥ 100
43 | CC(C)Nc1nc(C2CCCO2)cc2cnc(Nc3ccc(N4CCNCC4)cn3)nc12 (stereo not drawn) [Compound 992] | 10 to 100 | ≥ 100
44 | CC(C)Nc1nc(C2CCCO2)cc2cnc(Nc3ccc(N4CCNCC4)cn3)nc12 (stereo not drawn) [Compound 993] | < 10 | ≥ 100
45 | C[C@@H](O)c1cc2cnc(Nc3ccc(N4CCNCC4)cn3)nc2c(N[C@H]2CCOC2)n1 [Compound 994] | < 10 | ≥ 100
